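A five-concentration, 48-hour dose response in 96-well plates underlies each endpoint, interpolated linearly between surrounding concentrations. GI50 marks 50% less growth.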 Calls of active or inactive are those of the source. Rule as the data show it: active = GI50 up to about 1.1 µM and inactive = higher.
Experiments:
Assay in all cases: NCI tumour cell line growth inhibition, 48 h
[1] = tested on: A498
[2] = tested on: A549
[3] = tested on: CCRF-CEM
[4] = tested on: DMS-273
[5] = tested on: EKVX
[6] = tested on: HCT-116
[7] = tested on: HL-60
[8] = tested on: HOP-62
[9] = tested on: HOP-92
[10] = tested on: HT-29
[11] = tested on: IGROV-1
[12] = tested on: KM12
[13] = tested on: M14
[14] = tested on: M19-MEL
[15] = tested on: MOLT-4
[16] = tested on: NCI-H226
[17] = tested on: NCI-H23
[18] = tested on: NCI-H460
[19] = tested on: NCI-H522
[20] = tested on: OVCAR-5
[21] = tested on: OVCAR-8
[22] = tested on: RXF 393
[23] = tested on: SF-268
[24] = tested on: SF-295
[25] = tested on: SK-MEL-28
[26] = tested on: SK-OV-3
[27] = tested on: SNB-19
[28] = tested on: SNB-78
[29] = tested on: SR
[30] = tested on: TK-10
[31] = tested on: U-251
[32] = tested on: UACC-257
[33] = tested on: UACC-62
[34] = tested on: UO-31
[35] = tested on: 786-0
[36] = tested on: ACHN
[37] = tested on: BT-549
[38] = tested on: CAKI-1
[39] = tested on: COLO 205
[40] = tested on: DU-145
[41] = tested on: HCC 2998
[42] = tested on: HCT-15
[43] = tested on: Hs-578T
[44] = tested on: K562
[45] = tested on: LOX IMVI
[46] = tested on: MCF7
[47] = tested on: MDA-MB-231
[48] = tested on: MDA-MB-435
[49] = tested on: MDA-N
[50] = tested on: Malme-3M
[51] = tested on: NCI/ADR-RES
[52] = tested on: OVCAR-3
[53] = tested on: OVCAR-4
[54] = tested on: PC-3
[55] = tested on: RPMI-8226
[56] = tested on: SF-539
[57] = tested on: SK-MEL-2
[58] = tested on: SK-MEL-5
[59] = tested on: SN12C
[60] = tested on: SNB-75
[61] = tested on: SW-620
[62] = tested on: T47D

In the case of CCSc1c2ccccc2nc2c(OC)ccc(OC)c12, the GI50 [1] is reported as 31 µM (inactive), the GI50 [2] is reported as 70.6 µM (inactive) and the GI50 [3] is reported as 36.3 µM (inactive). For the same compound, the GI50 [4] was 21.9 µM (inactive), the GI50 [5] was > 100 µM (inactive) and the GI50 [6] was 20.1 µM (inactive). The GI50 [7] was 23.3 µM (inactive), the GI50 [8] was 36.5 µM (inactive) and the GI50 [9] was 22.3 µM (inactive). For the same compound, the GI50 [10] was 25.7 µM (inactive), the GI50 [11] was 26.7 µM (inactive) and the GI50 [12] was 24.7 µM (inactive). For the same compound, the GI50 [13] was 35.7 µM (inactive), the GI50 [14] was 18.5 µM (inactive) and the GI50 [15] was 22 µM (inactive). For the same compound, the GI50 [16] was 25.1 µM (inactive), the GI50 [17] was > 10 µM (inactive) and the GI50 [18] was 20.7 µM (inactive). The GI50 [19] was 41.2 µM (inactive), the GI50 [20] was 42.3 µM (inactive) and the GI50 [21] was 22.1 µM (inactive). The GI50 [22] was 18.6 µM (inactive), the GI50 [23] was 22.8 µM (inactive) and the GI50 [24] was 25.2 µM (inactive). The GI50 [25] was 19.8 µM (inactive), the GI50 [26] was 24.7 µM (inactive) and the GI50 [27] was 29.1 µM (inactive). The GI50 [28] was 14.5 µM (inactive), the GI50 [29] was 23.9 µM (inactive) and the GI50 [30] was 33.8 µM (inactive). The GI50 [31] was 19.3 µM (inactive), the GI50 [32] was 22.4 µM (inactive) and the GI50 [33] was 20.6 µM (inactive). For the same compound, the GI50 [34] was 25.9 µM (inactive).
c1ccc(SCCc2ccncc2)cc1 was tested, and the GI50 [35] was > 100 µM (inactive), the GI50 [1] was 70 µM (inactive) and the GI50 [2] was 84.5 µM (inactive). The GI50 [36] was > 100 µM (inactive), the GI50 [37] was > 100 µM (inactive) and the GI50 [38] was 53 µM (inactive). The GI50 [3] was 31.3 µM (inactive), the GI50 [39] was > 100 µM (inactive) and the GI50 [40] was > 100 µM (inactive). For the same compound, the GI50 [5] was 46 µM (inactive), the GI50 [41] was > 100 µM (inactive) and the GI50 [6] was > 100 µM (inactive). The GI50 [42] was > 100 µM, the GI50 [7] was 50.6 µM (inactive) and the GI50 [8] was > 100 µM (inactive). The GI50 [9] was 45.7 µM (inactive), the GI50 [10] was > 100 µM (inactive) and the GI50 [43] was > 100 µM (inactive). The GI50 [11] was > 100 µM (inactive), the GI50 [44] was 49.5 µM (inactive) and the GI50 [12] was 78.7 µM (inactive). The GI50 [45] was > 100 µM (inactive), the GI50 [13] was 75 µM (inactive) and the GI50 [46] was 91.4 µM (inactive). The GI50 [47] was > 100 µM (inactive), the GI50 [48] was > 100 µM (inactive) and the GI50 [49] was > 100 µM (inactive). The GI50 [15] was 17.7 µM (inactive), the GI50 [50] was > 100 µM (inactive) and the GI50 [16] was 77.1 µM (inactive). The GI50 [17] was 67.6 µM (inactive), the GI50 [18] was > 100 µM (inactive) and the GI50 [19] was 31 µM (inactive). For the same compound, the GI50 [51] was 58.7 µM (inactive), the GI50 [52] was 40.6 µM (inactive) and the GI50 [53] was 98.2 µM (inactive). The GI50 [20] was > 100 µM (inactive), the GI50 [21] was > 100 µM (inactive) and the GI50 [54] was > 100 µM (inactive). The GI50 [55] was 20.5 µM (inactive), the GI50 [22] was > 100 µM (inactive) and the GI50 [23] was > 100 µM (inactive). The GI50 [24] was 39.5 µM (inactive), the GI50 [56] was > 100 µM (inactive) and the GI50 [25] was > 100 µM (inactive). For the same compound, the GI50 [57] was > 100 µM (inactive), the GI50 [58] was 35.8 µM (inactive) and the GI50 [26] was > 100 µM (inactive). The GI50 [59] was > 100 µM (inactive), the GI50 [27] was > 100 µM (inactive) and the GI50 [60] was > 100 µM (inactive). The GI50 [29] was 19.3 µM (inactive), the GI50 [61] was > 100 µM (inactive) and the GI50 [62] was 52.1 µM (inactive). The GI50 [30] was > 100 µM (inactive), the GI50 [31] was > 100 µM (inactive) and the GI50 [32] was > 100 µM (inactive). The GI50 [33] was > 100 µM (inactive) and the GI50 [34] was 45.4 µM (inactive).
With O=c1cc(N=P(c2ccccc2)(c2ccccc2)c2ccccc2)n(-c2ccccc2)c(=O)n1-c1ccccc1 the GI50 [35] was 6.3 µM (inactive), the GI50 [1] was 3.18 µM (inactive) and the GI50 [2] was 6.25 µM (inactive). For the same compound, the GI50 [36] was 4.33 µM (inactive), the GI50 [37] was 14.5 µM (inactive) and the GI50 [38] was 12.7 µM (inactive). For the same compound, the GI50 [3] was 8.63 µM (inactive), the GI50 [39] was 6.56 µM (inactive) and the GI50 [40] was 9.51 µM (inactive). The GI50 [5] was 10.4 µM (inactive), the GI50 [41] was 8.26 µM (inactive) and the GI50 [6] was 13.3 µM (inactive). The GI50 [42] was 3.38 µM, the GI50 [7] was 5.06 µM (inactive) and the GI50 [8] was 6.52 µM (inactive). The GI50 [9] was 9.02 µM (inactive), the GI50 [10] was 15.9 µM (inactive) and the GI50 [43] was 18.2 µM (inactive). The GI50 [11] was 17.9 µM (inactive), the GI50 [44] was 3.31 µM (inactive) and the GI50 [12] was 14.9 µM (inactive). For the same compound, the GI50 [45] was 8.77 µM (inactive), the GI50 [13] was 8.79 µM (inactive) and the GI50 [46] was 6.03 µM (inactive). The GI50 [47] was 8.18 µM (inactive), the GI50 [48] was 5.2 µM (inactive) and the GI50 [49] was 7.64 µM (inactive). The GI50 [15] was 3.48 µM (inactive), the GI50 [50] was 11.8 µM (inactive) and the GI50 [16] was 3.92 µM (inactive). The GI50 [17] was 5.85 µM (inactive), the GI50 [18] was 4.15 µM (inactive) and the GI50 [19] was 14.4 µM (inactive). The GI50 [51] was 21.8 µM (inactive), the GI50 [52] was 8.17 µM (inactive) and the GI50 [53] was 4.95 µM (inactive). For the same compound, the GI50 [20] was 23.2 µM (inactive), the GI50 [21] was 12.3 µM (inactive) and the GI50 [54] was 3.94 µM (inactive). For the same compound, the GI50 [55] was 4.92 µM (inactive), the GI50 [22] was 1.53 µM (inactive) and the GI50 [23] was 29 µM (inactive). For the same compound, the GI50 [24] was 20.7 µM (inactive), the GI50 [56] was 3.76 µM (inactive) and the GI50 [25] was 23.9 µM (inactive). The GI50 [57] was 13.8 µM (inactive), the GI50 [58] was 10.3 µM (inactive) and the GI50 [26] was 22.2 µM (inactive). For the same compound, the GI50 [59] was 11.1 µM (inactive), the GI50 [27] was 17.7 µM (inactive) and the GI50 [60] was 10.1 µM (inactive). For the same compound, the GI50 [29] was 4.28 µM (inactive), the GI50 [61] was 7.45 µM (inactive) and the GI50 [62] was 8.85 µM (inactive). The GI50 [30] was 15.2 µM (inactive), the GI50 [31] was 8.02 µM (inactive) and the GI50 [32] was 23.8 µM (inactive). The GI50 [33] was 11.4 µM (inactive) and the GI50 [34] was 4.92 µM (inactive).
